One assay concerns C. glabrata biofilm. Nature of the assay: Biofilm inhibition concentration (XTT). Type of assay: cell-based, Candida glabrata. To be noted: Nakaseomyces glabratus, read-out: BIC50. On the procedure: (§1) In short, RPMI medium was inoculated with an overnight culture to an OD (optical density) of 0.1, transferred to a U-bottom 96-well plate (MLS, Belgium) and treated with serial dilutions of substances. After the adherence phase (1 h, 37° C.), supernatant was removed, adherent cells were washed with PBS and fresh media (including substances) was added. Biofilms were then allowed to grow for 24 h at 37° C. Formed biofilms were then analyzed for their metabolic activity. Therefore, C. albicans biofilm cells were treated with CTB (cell titer Blue®; Promega, Germany), diluted 1:100 in PBS. […] Sigma, Germany or ABCR, Germany) was used instead. Thereby, biofilm cells were treated with an XTT solution (0.25 mg/mL XTT+0.1 μM menadione in PBS) at 37° C. in the dark and OD490 was measured.

Another assay deals with C. glabrata. The assay is described as follows: Minimal inhibitory concentration, planktonic cells (CLSI M27). Type of assay: cell-based, Candida glabrata. To be noted: Nakaseomyces glabratus, growth reduced to 50% of untreated control. As to the method:
(§2) The minimal inhibitory concentration (MIC) was determined following the standard Clinical and Laboratory Standards Institute (CLSI) protocol M27 (Rex JH, and Clinical and Laboratory Standards Institute (2008). Reference method for broth dilution antifungal susceptibility testing of yeasts: approved standard, 3rd ed. National Committee for Clinical Laboratory Standards, Wayne, Pa.) for yeast strains or the standard CLSI protocol […] (Clinical and Laboratory Standards Institute (2008). Reference method for broth dilution antifungal susceptibility testing of filamentous fungi. Clinical and Laboratory Standards Institute, Wayne, Pa.) for filamentous fungi. For yeast strains media was inoculated with an overnight culture to an OD600 of 0.001 (1^04 cells/mL). Serial dilutions of substances were added and cells were incubated at 37° C. without shaking for 48±1 h. MIC tests were performed in flat-bottom 96 well plates (Greiner Bio One, Austria) using 100 μL suspension per well sealed with gas-permeable foils. After incubation, OD490 values were measured using 96-well plate reader and growth capacity was analyzed by setting the corresponding control to 100%. Different flavones were randomly chosen and tested for their effects on planktonic cells and biofilms of C. albicans and C. glabrata to determine corresponding IC50 values (the concentration that is required to reduce growth (minimal inhibitory concentration=MIC) or biofilm formation (biofilm inhibitory concentration=BIC) to 50% compared to the untreated control).

For assay [1], the system named is C. albicans. The assay is described as above. Conditions: Candida albicans, growth reduced to 50% of untreated control. Type of assay: cell-based. As to the method: as §2
Assay [2] has as its system C. albicans. Nature of the assay: Checkerboard / combination assay, growth of planktonic cells (OD490). To be noted: for antimycotic effect in combination with other known antimycotics: FIGS. 6 and 7; for effect on antifungal activity of azole antifungals (growth, OD490): flavone 6.25-25 μM with 0.1 μM miconazole or 1 μM fluconazole. The class given is cell-based, Candida albicans. As to the method:
The minimal inhibitory concentration (MIC) was determined following the standard Clinical and Laboratory Standards Institute (CLSI) protocol M27 (Rex JH, and Clinical and Laboratory Standards Institute (2008). Reference method for broth dilution antifungal susceptibility testing of yeasts: approved standard, 3rd ed. National Committee for Clinical Laboratory Standards, Wayne, Pa.) for yeast strains or the standard CLSI protocol M38 (Clinical and Laboratory Standards Institute (2008). Reference method for broth dilution antifungal susceptibility testing of filamentous fungi. Clinical and Laboratory Standards Institute, Wayne, Pa.) for filamentous fungi.
For yeast strains media was inoculated with an overnight culture to an OD600 of 0.001 (1^04 cells/mL). Serial dilutions of substances were added and cells were incubated at 37° C. without shaking for 48±1 h.
MIC tests were performed in flat-bottom 96 well plates (Greiner Bio One, Austria) using 100 μL suspension per well sealed with gas-permeable foils. After incubation, OD490 values were measured using 96-well plate reader and growth capacity was analyzed by setting the corresponding control to 100%.
For synergy testing of different combinations, checkerboard assays were performed. Therefore, serial dilutions of two different compounds were combined for MIC, BIC or BEC testing as described above. Antifungal activity of substances alone or in combination was determined by setting the corresponding control to 100%.

The next assay concerns C. albicans biofilm. Nature of the assay: Biofilm inhibition concentration (CTB staining). Type of assay: cell-based. To be noted: Candida albicans; C. albicans biofilm formation reduced to 50% of untreated control; read-out: BIC50. On the procedure:
as §1, with “The biofilm inhibition concentration (BIC) was determined as described in […] et al. (J Antimicrob Chemother 69(2014): 1035-1044). In” for “In”, “PBS. After incubation for 1 h at 37° C. in the dark fluorescence intensity was measured using a 96-well plate reader (Ex: 535, Em: 590, sens 65).” for “PBS.”, “measured. As for MIC, biofilm inhibition was analyzed by setting the corresponding control to 100%. Different flavones were randomly chosen and tested for their effects on planktonic cells and biofilms of C. albicans and C. glabrata to determine corresponding IC50 values (the concentration that is required to reduce growth (minimal inhibitory concentration=MIC) or biofilm formation (biofilm inhibitory concentration=BIC) to 50% compared to the untreated control).” for “measured.”

Where [3] appears, read: C. glabrata biofilm formation reduced to 50% of untreated control.

These results are taken from US20220249431A1, “ANTIMYCOTIC” (Karl-Franzens-Universität Graz, priority 2019, published 2022).

Values after ≈ are worked out from the molar mass of the structure shown. Like-named read-outs stand apart in the source and are kept apart here.

As a reminder, the MIC50 is an inhibitory concentration at the 50% level, which refers to growth in some studies and to a panel of isolates in others. The low end stands for greater potency, the high end for weaker potency. As to `O=c1c(O)c(-c2ccccc2O)oc2ccccc12` [2′,3-dihydroxyflavone], the IC50 in the assay with C. glabrata biofilm (setting [3]) was 124 ± 34.7 µM. Moreover, the MIC50 against C. glabrata was 53.9 ± 2.1 µM (≈ 13.7 µg/mL).
In the case of `O=c1c(O)c(-c2cccc(O)c2)oc2ccccc12` [3,3′-dihydroxyflavone], the MIC50 in the assay on C. albicans [1] is 254 ± 68.5 µM (≈ 64.7 µg/mL); in the assay on C. glabrata it was 5.9 ± 0.1 µM (≈ 1.5 µg/mL). In addition, the IC50 in the assay with C. glabrata biofilm (setting [3]) turned out to be 21.5 ± 3.6 µM.
With `O=c1c(O)c(-c2ccccc2)oc2cc(O)ccc12` [3,7-dihydroxyflavone], in the assay with C. glabrata biofilm, the IC50 was found to be 62.5 ± 26 µM.
For `O=c1c(O)c(-c2ccccc2)oc2ccccc12` [3-hydroxyflavone], the MIC50 in the assay with C. glabrata worked out at 6.2 ± 0.2 µM (≈ 1.48 µg/mL).
`O=c1cc(-c2ccc(O)c(O)c2)oc2cc(O)ccc12` [3′,4′,7-trihydroxyflavone]: in the assay with C. albicans [2], the “antimycotic effect in combination with other known antimycotics” value (shortened to “antimycotic effect in combination”) is “synergistic antimycotic effect” and the “effect on antifungal activity of azole antifungals (growth, OD490)” value is listed as “enhance the antifungal activity of azole antifungals”.
As for `O=c1cc(-c2ccc(O)c(O)c2)oc2ccccc12` [3′,4′-dihydroxyflavone], in the assay with C. albicans biofilm, the IC50 came out at 147 ± 17.3 µM. For the same compound, the “effect on antifungal activity of antimycotics (growth, OD490)” value in the assay with C. albicans [2] (12.5-25 μM 3′,4′-DHF with miconazole, fluconazole, ketoconazole or clotrimazole) is reported as “enhances the antifungal activity of antimycotics”. Moreover, the “antimycotic effect in combination” value in the assay on C. albicans [2] is on record as “synergistic antimycotic effect”.
For `O=c1cc(-c2cccc(O)c2)oc2ccccc12` [3′-hydroxyflavone], the IC50 in the assay on C. glabrata biofilm (setting [3]) is 26.7 ± 3 µM.
As for `O=c1cc(-c2ccc(O)cc2)oc2cccc(O)c12` [4′,5-dihydroxyflavone, reference compound], the MIC50 in the assay with C. albicans [1] and with C. glabrata was greater than 400 µM each time. Besides, the IC50 with C. albicans biofilm and in the assay on C. glabrata biofilm (setting [3]) was greater than 400 µM each time.
For `O=c1cc(-c2ccccc2)oc2cc(O)cc(O)c12` [5,7-dihydroxyflavone, reference compound], the MIC50 with C. albicans [1] and against C. glabrata was greater than 400 µM throughout. Also, the IC50 in the assay on C. albicans biofilm and in the assay with C. glabrata biofilm (setting [3]) was greater than 400 µM in each case.
As to `O=c1cc(-c2ccccc2)oc2cc(O)c(O)cc12` [6,7-dihydroxyflavone], the IC50 in the assay with C. glabrata biofilm (setting [3]) was determined as 41.7 ± 9.1 µM. In the assay on C. glabrata, this compound registered an MIC50 of 15.7 ± 4.1 µM (≈ 3.99 µg/mL).
Take `O=c1cc(-c2ccccc2)oc2ccc(O)cc12` [6-hydroxyflavone]: in the assay on C. glabrata biofilm (setting [3]), the IC50 was found to be 129 ± 14.2 µM.
As to `O=c1cc(-c2ccccc2)oc2cc(O)ccc12` [7-hydroxyflavone], the IC50 with C. glabrata biofilm was 17.4 ± 7 µM.
Take `O=c1cc(-c2ccc(O)c(O)c2)oc2cc(O)cc(O)c12` [luteolin, 3′,4′,5,7-tetrahydroxyflavone]: in the assay on C. albicans [2], the “antimycotic effect in combination” value was “synergistic antimycotic effect” and the “effect on antifungal activity of azole antifungals (growth, OD490)” value is recorded as “enhance the antifungal activity of azole antifungals”.
